From ChEMBL document CHEMBL5042502, “Discovery of Potent and Selective 2-(Benzylthio)pyrimidine-based DCN1-UBC12 Inhibitors for Anticardiac Fibrotic Effects” (J Med Chem, 2022)
pIC50, pKd, pKi: −log10 of the molar value. Activity calls are given as the source filed them.

Key:
DCN1-like protein 1 [1] = biological target: T1, DCN1-like protein 1 (Homo sapiens, UniProt Q96GG9); test: Inhibition of GST-tagged DCN1 (unknown origin) using AcUBE2M1-21 incubated for 30 mins by HTRF assay
Target sequence in this assay (Q96GG9 whole entry): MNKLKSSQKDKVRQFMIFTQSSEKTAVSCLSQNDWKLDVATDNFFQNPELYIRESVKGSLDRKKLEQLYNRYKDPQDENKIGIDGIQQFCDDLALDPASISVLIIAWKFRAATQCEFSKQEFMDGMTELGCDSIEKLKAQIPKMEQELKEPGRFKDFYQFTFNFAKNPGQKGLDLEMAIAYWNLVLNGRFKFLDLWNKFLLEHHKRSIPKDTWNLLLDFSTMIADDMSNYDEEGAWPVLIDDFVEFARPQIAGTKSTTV

[2] = Toxicity in 24 hr starved C57BL/6 mouse assessed as pathological change in kidney at 2 g/Kg administered via gavage measured after 2 weeks by H and E staining based histopathological analysis; type: tissue-based; details: in vivo, po, 2000 mg/kg
[3] = tested on: Fibroblast of cardiac tissue; test: Antifibrotic effect in SD rat cardiac fibroblast transfected with DCN1 siRNA assessed as effect on collagen III expression at 1 uM preincubated for 2 hrs followed by Ang II-stimulation and further incubated for 24 hrs by western blot analysis; type: functional, cell-based; details: time 26.0 hrs
[4] = tested on: Fibroblast of cardiac tissue; test: Effect on Ang II-induced in Cul4A neddylation in mouse cardiac fibroblast at 1 uM preincubated for 2 hrs followed by Ang-II stimulation and further incubated for 24 hrs by western blot analysis; type: functional, cell-based; details: time 26.0 hrs
[5] = tested on: Fibroblast of cardiac tissue; test: Inhibition of differentiation of Ang II-induced mouse cardiac fibroblast to myofibroblast assessed as decrease in alpha-SMA expression levels at 1 uM preincubated for 2 hrs followed by Ang-II stimulation and further incubated for 24 hrs by immunofluorescence assay; type: functional, cell-based; details: time 26.0 hrs
DCN1-like protein 1 [6] = biological target: T1, DCN1-like protein 1
Target sequence in this assay (Q96GG9 whole entry, looked up): as the sequence (Q96GG9 whole entry) above
Description: Binding affinity to DCN1 (unknown origin) assessed as Gibbs free energy change by MM-PBSA method

[7] = Toxicity in 24 hr starved C57BL/6 mouse assessed as animal survival at 2 g/Kg administered via gavage measured upto 2 weeks; details: in vivo, po, 2000 mg/kg
[8] = Toxicity in 24 hr starved C57BL/6 mouse assessed as pathological change in lungs at 2 g/Kg administered via gavage measured after 2 weeks by H and E staining based histopathological analysis; details: in vivo, po, 2000 mg/kg
DCN1-like protein 1 [9] = biological target: T1, DCN1-like protein 1; test: Binding affinity to DCN1 (unknown origin) assessed as inhibitory constant
Target sequence in this assay (Q96GG9 whole entry): as above

Cardiac fibroblast [10] = test: Inhibition of DCN1 in Sprague-Dawley rat cardiac fibroblast assessed as suppression in DCN1-UBC12 interaction by measuring reduction in UBC12 level at 10 uM incubated for 5 hrs co-incubated with DCN1 antibody by co-immunoprecipitation pull down assay; type: cell-based
DCN1-like protein 3 = biological target: T2, DCN1-like protein 3 (Homo sapiens, UniProt Q8IWE4); test: Binding affinity to DCN3 (unknown origin) assessed as inhibitory constant
T2 sequence (Q8IWE4 whole entry): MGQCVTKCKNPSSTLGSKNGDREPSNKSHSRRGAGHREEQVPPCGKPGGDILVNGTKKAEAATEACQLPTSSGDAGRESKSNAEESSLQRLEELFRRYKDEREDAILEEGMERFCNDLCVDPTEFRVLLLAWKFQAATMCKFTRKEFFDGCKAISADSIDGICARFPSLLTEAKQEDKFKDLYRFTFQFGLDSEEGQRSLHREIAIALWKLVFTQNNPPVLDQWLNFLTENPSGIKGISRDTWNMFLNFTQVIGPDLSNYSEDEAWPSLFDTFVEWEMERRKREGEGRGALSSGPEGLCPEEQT

Cardiac fibroblast [11] = test: Inhibition of DCN1 in Ang II-treated Sprague-Dawley rat cardiac fibroblast assessed as inhibition of cell proliferation preincubated for 2 hrs followed by Ang-II stimulation and further incubated for 24 hrs by MTT assay; type: cell-based; details: dose 0.1-3 µM, time 26.0 hrs
Cardiac fibroblast [12] = test: Inhibition of intracellular DCN1 in Sprague-Dawley rat cardiac fibroblast measured between 42 to 62 degC at 10 uM incubated for 5 hrs by cellular thermal shift assay; type: cell-based
[13] = tested on: Fibroblast of cardiac tissue; test: Reversal of Ang II-induced increase in collagen III secretion in mouse cardiac fibroblast at 1 uM preincubated for 2 hrs followed by Ang-II stimulation and further incubated for 24 hrs by western blot analysis; type: functional, cell-based; details: time 26.0 hrs
[14] = tested on: Fibroblast of cardiac tissue; test: Effect on Cul4B neddylation in mouse cardiac fibroblast at 1 uM preincubated for 2 hrs by Western blot analysis; type: functional, cell-based
[15] = tested on: Fibroblast of cardiac tissue; test: Effect on Cul1 neddylation in mouse cardiac fibroblast at 1 uM preincubated for 2 hrs by Western blot analysis; type: functional, cell-based
[16] = tested on: Fibroblast of cardiac tissue; test: Reversal of Ang II-induced decrease in Nrf2 secretion in mouse cardiac fibroblast at 1 uM preincubated for 2 hrs followed by Ang-II stimulation and further incubated for 24 hrs by western blot analysis; type: functional, cell-based; details: time 26.0 hrs
[17] = Toxicity in 24 hr starved C57BL/6 mouse assessed as pathological change in liver at 2 g/Kg administered via gavage measured after 2 weeks by H and E staining based histopathological analysis; type: tissue-based; details: in vivo, po, 2000 mg/kg
[18] = Toxicity in 24 hr starved C57BL/6 mouse assessed as pathological change in spleen at 2 g/Kg administered via gavage measured after 2 weeks by H and E staining based histopathological analysis; type: tissue-based; details: in vivo, po, 2000 mg/kg
Cardiac fibroblast [19] = test: Inhibition of DCN1 in TGF-beta-treated Sprague-Dawley rat cardiac fibroblast assessed as inhibition of cell proliferation at 0.1 to 3 uM preincubated for 2 hrs followed by TGF-beta stimulation and further incubated for 24 hrs by MTT assay; type: cell-based; details: dose 0.1-3 µM, time 26.0 hrs
[20] = tested on: Fibroblast of cardiac tissue; test: Effect on Ang II-induced in Cul4B neddylation in mouse cardiac fibroblast at 1 uM preincubated for 2 hrs followed by Ang-II stimulation and further incubated for 24 hrs by western blot analysis; type: functional, cell-based; details: time 26.0 hrs
[21] = tested on: Fibroblast of cardiac tissue; test: Antifibrotic effect in SD rat cardiac fibroblast transfected with DCN1 siRNA assessed as effect on collagen I expression at 1 uM preincubated for 2 hrs followed by Ang II-stimulation and further incubated for 24 hrs by western blot analysis; type: functional, cell-based; details: time 26.0 hrs
[22] = Toxicity in 24 hr starved C57BL/6 mouse assessed as change in cardiac function at 2 g/Kg administered via gavage measured after 2 weeks by echocardiography; details: in vivo, po, 2000 mg/kg
[23] = tested on: Fibroblast of cardiac tissue; test: Effect on Cul5 neddylation in mouse cardiac fibroblast at 1 uM preincubated for 2 hrs by Western blot analysis; type: functional, cell-based
DCN1-like protein 2 = DCN1-like protein 2 (Homo sapiens, UniProt Q6PH85); test: Binding affinity to DCN2 (unknown origin) assessed as inhibitory constant
[24] = tested on: Fibroblast of cardiac tissue; test: Effect on Ang II-induced in Cul1 neddylation in mouse cardiac fibroblast at 1 uM preincubated for 2 hrs followed by Ang-II stimulation and further incubated for 24 hrs by western blot analysis; type: functional, cell-based; details: time 26.0 hrs
DCN1-like protein 1 [25] = biological target: T1, DCN1-like protein 1; test: Binding affinity to […] DCN1 (unknown origin) assessed as dissociation constant incubated for upto 180 secs by label-free biolayer interferometry assay
Target sequence in this assay (Q96GG9 whole entry): as the sequence (Q96GG9 whole entry) above

[26] = tested on: Fibroblast of cardiac tissue; test: Reversal of Ang II-induced increase in DCN1 secretion in mouse cardiac fibroblast at 1 uM preincubated for 2 hrs followed by Ang-II stimulation and further incubated for 24 hrs by western blot analysis; type: functional, cell-based; details: time 26.0 hrs
Cardiac fibroblast [27] = test: Inhibition of DCN1 in Ang II-treated Sprague-Dawley rat cardiac fibroblast assessed as inhibited cell migration at 0.1 to 3 uM incubated for 24 hrs stained with crystal violet by transwell migration assay; type: cell-based; details: Sprague-Dawle, dose 0.1-3 µM
[28] = Cytotoxicity against Sprague-Dawley rat cardiac fibroblast by MTT assay; type: toxicity, cell-based, Fibroblast of cardiac tissue; details: cardiac fibroblasts
[29] = tested on: Fibroblast of cardiac tissue; test: Effect on Cul2 neddylation in mouse cardiac fibroblast at 1 uM preincubated for 2 hrs by Western blot analysis; type: functional, cell-based

DCN1-like protein 2, sequence (Q6PH85 whole entry): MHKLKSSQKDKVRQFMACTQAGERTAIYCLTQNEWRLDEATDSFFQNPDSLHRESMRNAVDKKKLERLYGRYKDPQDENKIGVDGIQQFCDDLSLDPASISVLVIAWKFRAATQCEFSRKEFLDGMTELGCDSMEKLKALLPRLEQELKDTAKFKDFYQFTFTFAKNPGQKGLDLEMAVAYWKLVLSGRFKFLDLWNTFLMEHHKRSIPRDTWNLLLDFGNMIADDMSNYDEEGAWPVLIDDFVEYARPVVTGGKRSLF

COc1cc(-c2nc(SCc3ccc(Cl)cc3)nc(Sc3nnnn3C)c2C#N)cc(OC)c1OC
3.41: pKi (DCN1-like protein 3)
4.73: pKi (DCN1-like protein 2)
8.02: pIC50 (DCN1-like protein 1 [1])
-8.75 kcal/mol: deltaG (DCN1-like protein 1 [6])
7.59: pKd (DCN1-like protein 1 [25])
inactive: inhibition [3] | inhibition [21]
4.56: pIC50 [28]
Non-Toxic: Activity [2] | Activity [7] | Activity [8] | Activity [17] | Activity [18] | Activity [22]
8.08: pKi (DCN1-like protein 1 [9])
active: Activity [4] | inhibition [5] | inhibition (Cardiac fibroblast [10]) | inhibition (Cardiac fibroblast [11]) | inhibition (Cardiac fibroblast [12]) | Activity [13] | Activity [14] | Activity [15] | Activity [16] | inhibition (Cardiac fibroblast [19]) Dose-Dependent Effect | Activity [20] | Activity [23] | Activity [24] | Activity [26] | inhibition (Cardiac fibroblast [27]) | Activity [29]
